Data from ChEMBL document CHEMBL1201862, “PubChem BioAssay data set” (2004).
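Exposure lasted 48 hours, with cells grown in 96-well plates and compounds tested at five concentrations. At the GI50, growth is halved.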 Active and inactive are the calls of the source. Rule as the data show it: active = GI50 up to about 1.1 µM and inactive = higher.

How the values were obtained:
Assay in all cases: growth of human tumour cells (NCI), 48 h
CCRF-CEM = tested on: CCRF-CEM
DU-145 = tested on: DU-145
EKVX = tested on: EKVX
HCT-116 = tested on: HCT-116
HL-60 = tested on: HL-60
IGROV-1 = tested on: IGROV-1
LOX IMVI = tested on: LOX IMVI
MDA-MB-435 = tested on: MDA-MB-435
NCI-H226 = tested on: NCI-H226
NCI-H522 = tested on: NCI-H522
NCI/ADR-RES = tested on: NCI/ADR-RES
OVCAR-5 = tested on: OVCAR-5
OVCAR-8 = tested on: OVCAR-8
PC-3 = tested on: PC-3
SF-295 = tested on: SF-295
SNB-75 = tested on: SNB-75
SW-620 = tested on: SW-620
T47D = tested on: T47D
U-251 = tested on: U-251

SMILES | GI50 (CCRF-CEM) | GI50 (DU-145) | GI50 (EKVX) | GI50 (HCT-116) | GI50 (HL-60) | GI50 (IGROV-1) | GI50 (LOX IMVI) | GI50 (MDA-MB-435) | GI50 (NCI-H226) | GI50 (NCI-H522) | GI50 (NCI/ADR-RES) | GI50 (OVCAR-5) | GI50 (OVCAR-8) | GI50 (PC-3) | GI50 (SF-295) | GI50 (SNB-75) | GI50 (SW-620) | GI50 (T47D) | GI50 (U-251)
CC#CCOC(=O)c1ccccc1OC(C)=O | > 100 µM (inactive) | > 100 µM (inactive) | > 100 µM (inactive) | > 100 µM (inactive) | 72.1 µM (inactive) | > 100 µM (inactive) | > 100 µM (inactive) | > 100 µM (inactive) | > 100 µM (inactive) | > 100 µM (inactive) | > 100 µM (inactive) | > 100 µM (inactive) | > 100 µM (inactive) | > 100 µM (inactive) | > 100 µM (inactive) | > 100 µM (inactive) | > 100 µM (inactive) | > 100 µM (inactive) | > 100 µM (inactive)
CN(O)C(=O)c1cccc(Cl)c1 | 60 µM (inactive) | > 100 µM (inactive) | > 100 µM (inactive) | > 100 µM (inactive) | 10.2 µM (inactive) | 91.8 µM (inactive) | > 100 µM (inactive) | > 100 µM (inactive) | > 100 µM (inactive) | > 100 µM (inactive) | > 100 µM (inactive) | > 100 µM (inactive) | > 100 µM (inactive) | > 100 µM (inactive) | > 100 µM (inactive) | > 100 µM (inactive) | > 100 µM (inactive) | > 100 µM (inactive) | > 100 µM (inactive)
COc1ccc(N2C(=O)C3ON(C(C(N)=O)c4ccccc4)C(c4ccc(-c5ccccc5)cc4)C3C2=O)cc1 (stereo not given) | 10.2 µM (inactive) | > 50 µM (inactive) | > 50 µM (inactive) | > 50 µM (inactive) | > 50 µM (inactive) | 48.8 µM (inactive) | 36.5 µM (inactive) | > 50 µM (inactive) | > 50 µM (inactive) | 48.3 µM (inactive) | > 50 µM (inactive) | > 50 µM (inactive) | > 50 µM (inactive) | > 50 µM (inactive) | > 50 µM (inactive) | > 50 µM (inactive) | > 50 µM (inactive) | > 50 µM (inactive) | > 50 µM (inactive)
CC(C)(C)C1=NC(=P(c2ccccc2)(c2ccccc2)c2ccccc2)C(=O)O1 | > 100 µM (inactive) | > 100 µM (inactive) | 22.5 µM (inactive) | > 100 µM (inactive) | > 100 µM (inactive) | > 100 µM (inactive) | > 100 µM (inactive) | > 100 µM (inactive) | > 100 µM (inactive) | 20.2 µM (inactive) | > 100 µM (inactive) | > 100 µM (inactive) | > 100 µM (inactive) | > 100 µM (inactive) | > 100 µM (inactive) | 6.21 µM (inactive) | > 100 µM (inactive) | > 100 µM (inactive) | > 100 µM (inactive)
N#CCc1nc(-c2cc3ccc(O)cc3oc2=O)cs1 | 38.7 µM (inactive) | 83.4 µM (inactive) | 63 µM (inactive) | 53.1 µM (inactive) | 29.2 µM (inactive) | 49.1 µM (inactive) | 46.2 µM (inactive) | 33.1 µM (inactive) | 53.6 µM (inactive) | > 100 µM (inactive) | > 100 µM (inactive) | > 100 µM (inactive) | > 100 µM (inactive) | 34.3 µM (inactive) | 33.2 µM (inactive) | 57 µM (inactive) | 39.6 µM (inactive) | 36.7 µM (inactive) | 45.8 µM (inactive)
CC(=O)C1=C(C)N(c2ccccc2)C2(O)C=CC(O)=C3C(=O)c4ccccc4C(=O)C312 (stereo not given) | 3.73 µM (inactive) | 9.04 µM (inactive) | 18.2 µM (inactive) | 8.15 µM (inactive) | 5.69 µM (inactive) | 8.91 µM (inactive) | 4.94 µM (inactive) | 2.45 µM (inactive) | 25.5 µM (inactive) | 16.3 µM (inactive) | 3.36 µM (inactive) | 15.8 µM (inactive) | 9.18 µM (inactive) | 17.8 µM (inactive) | 14.9 µM (inactive) | 35.2 µM (inactive) | 7.64 µM (inactive) | 8.75 µM (inactive) | 18 µM (inactive)
CCN1CCc2sc3nc(S)n(C)c(=O)c3c2C1 | < 0.01 µM (active) | > 100 µM (inactive) | > 100 µM (inactive) | > 100 µM (inactive) | < 0.01 µM (active) | > 100 µM (inactive) | > 100 µM (inactive) | > 100 µM (inactive) | > 100 µM (inactive) | > 100 µM (inactive) | > 100 µM (inactive) | > 100 µM (inactive) | > 100 µM (inactive) | > 100 µM (inactive) | > 100 µM (inactive) | > 100 µM (inactive) | > 100 µM (inactive) | > 100 µM (inactive) | > 100 µM (inactive)
O=c1oc2ccccc2cc1P(=O)(O)O | > 100 µM (inactive) | > 100 µM (inactive) | > 100 µM (inactive) | > 100 µM (inactive) | > 100 µM (inactive) | > 100 µM (inactive) | > 100 µM (inactive) | > 100 µM (inactive) | > 100 µM (inactive) | > 100 µM (inactive) | > 100 µM (inactive) | > 100 µM (inactive) | > 100 µM (inactive) | > 100 µM (inactive) | > 100 µM (inactive) | > 100 µM (inactive) | > 100 µM (inactive) | > 100 µM (inactive) | > 100 µM (inactive)
NCCNC(=O)CN(CC(=O)O)C1CCCCC1N(CC(=O)O)CC(=O)O (stereo not given) | > 100 µM (inactive) | > 100 µM (inactive) | > 100 µM (inactive) | > 100 µM (inactive) | > 100 µM (inactive) | > 100 µM (inactive) | > 100 µM (inactive) | > 100 µM (inactive) | > 100 µM (inactive) | > 100 µM (inactive) | > 100 µM (inactive) | > 100 µM (inactive) | > 100 µM (inactive) | > 100 µM (inactive) | > 100 µM (inactive) | 2.32 µM (inactive) | > 100 µM (inactive) | > 100 µM (inactive) | > 100 µM (inactive)
COc1cc2oc(=O)ccc2cc1C(=O)CC(C)C | > 100 µM (inactive) | > 100 µM (inactive) | 94.8 µM (inactive) | > 100 µM (inactive) | 39.2 µM (inactive) | > 100 µM (inactive) | > 100 µM (inactive) | > 100 µM (inactive) | 28.6 µM (inactive) | 23.6 µM (inactive) | 66.4 µM (inactive) | > 100 µM (inactive) | > 100 µM (inactive) | > 100 µM (inactive) | > 100 µM (inactive) | 78.7 µM (inactive) | > 100 µM (inactive) | > 100 µM (inactive) | > 100 µM (inactive)
COc1cc(NS(C)(=O)=O)ccc1NCc1c[nH]c2ccc3ncccc3c12 | 1.83 µM (inactive) | 23.9 µM (inactive) | 20.2 µM (inactive) | 21.2 µM (inactive) | 0.871 µM (active) | 37.1 µM (inactive) | 25.2 µM (inactive) | 19.3 µM (inactive) | 12.3 µM (inactive) | 14.2 µM (inactive) | 20.3 µM (inactive) | 20.9 µM (inactive) | 25 µM (inactive) | 19.4 µM (inactive) | 18.5 µM (inactive) | 14.3 µM (inactive) | 26.1 µM (inactive) | 10.9 µM (inactive) | 27.5 µM (inactive)
CCOC(=O)C12CCC(c3c(C)cccc3C)(O1)C(C(=O)OC)=C2C(=O)OC (stereo not given) | 3.06 µM (inactive) | 4.24 µM (inactive) | > 7.18 µM (inactive) | 2.14 µM (inactive) | 1.82 µM (inactive) | 3.6 µM (inactive) | 2.39 µM (inactive) | 0.499 µM (active) | 5.52 µM (inactive) | 5.38 µM (inactive) | > 9.25 µM (inactive) | 3.19 µM (inactive) | 5.4 µM (inactive) | 2.09 µM (inactive) | 5.45 µM (inactive) | 3.64 µM (inactive) | 2.07 µM (inactive) | 6.35 µM (inactive) | 3.76 µM (inactive)
O=C1CS[C@@](CC(c2ccc(Cl)cc2)c2ccc(Cl)cc2)(c2ccc(Cl)cc2)N1 | 4.71 µM (inactive) | 39.1 µM (inactive) | 16.9 µM (inactive) | 9.59 µM (inactive) | 3.8 µM (inactive) | 26.4 µM (inactive) | 8.53 µM (inactive) | 14 µM (inactive) | 9.75 µM (inactive) | 6.28 µM (inactive) | 8.17 µM (inactive) | > 100 µM (inactive) | 14.6 µM (inactive) | 4.68 µM (inactive) | 5.08 µM (inactive) | 33.5 µM (inactive) | 18.2 µM (inactive) | 4.28 µM (inactive) | 10.2 µM (inactive)
O=C1N(CN2CCOCC2)CN(CN2CCOCC2)C(=O)N1Cc1ccc(CN2C(=O)N(CN3CCOCC3)CN(CN3CCOCC3)C2=O)cc1 | 62.1 µM (inactive) | 45.8 µM (inactive) | > 100 µM (inactive) | 33.6 µM (inactive) | 60.1 µM (inactive) | > 100 µM (inactive) | 23.9 µM (inactive) | 26.4 µM (inactive) | > 100 µM (inactive) | > 100 µM (inactive) | 49.9 µM (inactive) | > 100 µM (inactive) | 42 µM (inactive) | 45.6 µM (inactive) | > 100 µM (inactive) | 89.7 µM (inactive) | 43 µM (inactive) | 53 µM (inactive) | 44.9 µM (inactive)
Clc1ccc(Cn2cc(/C=N/n3cnnc3)c3ccccc32)cc1 | 73.6 µM (inactive) | > 100 µM (inactive) | 20.6 µM (inactive) | 31.8 µM (inactive) | 40.6 µM (inactive) | 24.1 µM (inactive) | 54.6 µM (inactive) | 83.9 µM (inactive) | 1.1 µM (active) | 23.2 µM (inactive) | 35 µM (inactive) | 11.7 µM (inactive) | 40.4 µM (inactive) | 52.1 µM (inactive) | 33.3 µM (inactive) | 21.1 µM (inactive) | > 100 µM (inactive) | 11.8 µM (inactive) | 37.8 µM (inactive)
